± gives the expanded uncertainty stated by the source.
Experiments:
[1] = 101.3 kPa, Liquid; for viscosity: Capillary tube (Ostwald / Ubbelohde) method; for mass density: Vibrating tube method
[2] = xn = mol fraction of the nth substance listed; details: 101.3 kPa, Liquid, x2 = 0; for viscosity: Capillary tube (Ostwald / Ubbelohde) method; for mass density: Vibrating tube method

In the case of CC(O)CNCC(C)O (stereo unspecified) [N-(2-hydroxypropyl)-2-hydroxy-1-propanamine], the viscosity ([1]; 318.65 K) is reported as 186.6 ± 4.6 mPa·s, the mass density ([1]; 318.65 K) is reported as 988.22 ± 1 kg/m3 and the viscosity ([1]; 323.15 K) is reported as 125.7 ± 2.3 mPa·s. The mass density ([1]; 323.15 K) was 984.9 ± 1 kg/m3, the viscosity ([1]; 333.15 K) was 57.99 ± 0.62 mPa·s and the mass density ([1]; 333.15 K) was 977.3 ± 1 kg/m3. The viscosity ([1]; 343.15 K) was 29.55 ± 0.33 mPa·s and the mass density ([1]; 343.15 K) was 969.58 ± 0.99 kg/m3.

In the case of O [water], the viscosity ([1]; 298.15 K) is reported as 0.89 ± 0.006 mPa·s, the viscosity ([1]; 313.15 K) is reported as 0.653 ± 0.004 mPa·s and the viscosity ([1]; 318.65 K) is reported as 0.595 ± 0.004 mPa·s. For the same compound, the viscosity ([1]; 323.15 K) was 0.547 ± 0.004 mPa·s, the mass density ([1]; 323.15 K) was 988.04 ± 0.08 kg/m3 and the viscosity ([1]; 333.15 K) was 0.466 ± 0.003 mPa·s. It also gave a mass density ([1]; 333.15 K) of 983.12 ± 0.08 kg/m3, a viscosity ([1]; 343.15 K) of 0.405 ± 0.003 mPa·s and a mass density ([1]; 343.15 K) of 977.77 ± 0.08 kg/m3.

For O [water] + CC(O)CNCC(C)O, the viscosity ([2]; 298.15 K) was 0.89 ± 0.006 mPa·s, the viscosity ([2]; 313.15 K) was 0.653 ± 0.004 mPa·s and the viscosity ([2]; 318.65 K) was 0.595 ± 0.004 mPa·s. It also gave a viscosity ([2]; 323.15 K) of 0.547 ± 0.004 mPa·s, a mass density ([2]; 323.15 K) of 988.04 ± 0.08 kg/m3 and a viscosity ([2]; 333.15 K) of 0.466 ± 0.003 mPa·s. For the same compound, the mass density ([2]; 333.15 K) was 983.12 ± 0.08 kg/m3, the viscosity ([2]; 343.15 K) was 0.405 ± 0.003 mPa·s and the mass density ([2]; 343.15 K) was 977.77 ± 0.08 kg/m3.

Source: the NIST ThermoML archive (doi:10.1021/je030132i)
